{"source": "patent US12570641B2", "about": "“Solid forms of a CDK4 inhibitor” (Pfizer Inc., priority 2020, dated 2026)", "format_in_all_cases": "physicochemical", "key": {"[1]": {"test": "Accelerated solid state chemical/humidity stability by UPLC", "conditions": "for % impurity RRT 0.89 / % impurity RRT 1.31: UPLC", "description": "Accelerated solid state chemical stability and photostability of PF-07220060 monohydrate (Form 2) was investigated. Solid state chemical/humidity stability of PF-07220060 monohydrate (Form 2) was evaluated by UPLC (ultra performance liquid chromatography) analysis after storage at 70° C./5% RH and 70° C./75% RH for one week, and at 40° C./5% RH and 40° C./75% RH for 6 weeks. The percentage of identified impurity peaks at the indicated RRT (relative retention time) values were determined under the challenge conditions versus a control sample stored at ambient temperature. RRT is calculated by dividing the retention time (RT) of the impurity by the RT of Form 2. Data at 70° C./5% RH and 70° C./75% RH for one week are provided in Table 14 and Table 15, respectively."}, "[2]": {"test": "Solid form of control and stressed samples by powder X-ray diffraction", "description": "Powder X-ray diffraction analysis was conducted using a Bruker AXS D8 Endeavor diffractometer equipped with a copper radiation source. The divergence slit was set at 15 mm continuous illumination. Diffracted radiation was detected by a PSD-Lynx Eye detector, with the detector PSD opening set at 2.99 degrees. The X-ray tube voltage and amperage were set to 40 kV and 40 mA respectively. Data was collected at the copper (Cu) wavelength (CuKα=[…]) in the Theta-Theta goniometer from 3.0 to 40.0 degrees 2-Theta. A step size of 0.01 degrees and a step time of 1.0 second was used for Form 2, Form 6 and Form 8. A step size of 0.02 degrees and a step time of 0.3 seconds was used for Form 11. The antiscatter screen was set to a fixed distance of 1.5 mm. Samples were rotated during data collection. Samples were prepared by placing them in a silicon low background sample holder and rotated during collection. Data were collected using Bruker DIFFRAC Plus software and analysis was performed by EVA diffract plus software.\nPowder X-ray diffraction was used to assess the solid form of the control and the stressed samples."}, "[3]": {"test": "Solid-state photostability (2x ICH light exposure)", "description": "Solid-state photostability of PF-07220060 monohydrate (Form 2) was evaluated after light exposure equivalent to 2× International Conference on Harmonisation (ICH) guidelines."}, "[4]": {"test": "Moisture sorption (hygroscopicity), water sorption and desorption", "description": "Water sorption and desorption studies were conducted on an automated vapor sorption analyzer (TA instruments Q5000 SA). The microbalance was calibrated using a 100 mg standard weight. The relative humidity (RH) sensor was calibrated at 5.0, 11.3, 32.8, 52.8, 75.3, and 84.3% RH (25° C.) using saturated salt solutions. Approximately 10-20 mg of the powder sample was placed in the quartz sample holder and dried at 3% RH at 60° C. The attainment of equilibrium was assumed when the weight change of the sample was <0.001 wt % in 5 min or by a maximum equilibration time of 300 minutes. […] Again, the attainment of equilibrium was assumed when the weight change of the sample was <0.001 wt % in 5 min or by a maximum equilibration time of 300 minutes. The weight gain at 60% RH is based on the weight after the initial drying step.\nWater sorption and desorption studies of PF-07220060 monohydrate (Form 2), prepared as described in Example 2, were conducted according to General Method 6.\nWater sorption and desorption studies of PF-07220060 hydrate (Form 1), prepared as described in Example 5B, were conducted according to General Method 6.\nComparative hygroscopicity experiments were performed using moisture sorption analysis according to General Method 6. PF-07220060 Forms 1, 2, 6, and 8 were evaluated using moisture sorption at 25° C., 60% RH. A form change at the completion of the run was not detected for any of the forms by PXRD."}, "[5]": {"test": "Thermal stability by Differential Scanning Calorimetry (DSC)", "description": "Modulated Differential scanning calorimetry (DSC) measurements were performed with Discovery DSC (TA instruments) equipped with a refrigerated cooling accessory. All the experiments were performed in standard/Tzero aluminum pans. The cell constant was determined using indium and temperature calibration was performed using indium and tin as standards. All the measurements were done under continuous dry nitrogen purge (50 mL/min). Approximately 1-5 mg of solid sample was weighed into a Tzero aluminum pan, sealed non-hermetically and heated from −40° C. to 220° C. at 10° C./min heating rate. The experimental data were analyzed using commercially available software (TA Universal Analysis 2000/Trios software, TA Instruments).\n(§1) Thermal stability data were obtained through thermogravimetric analysis (TGA) according to General Method 4, and Differential Scanning Calorimetry (DSC) scan according to General Method 5A."}, "[6]": {"test": "Thermal stability by thermogravimetric analysis (TGA)", "conditions": "listed as Form 2 (monohydrate), monohydrate", "description": "Thermogravimetric analysis was conducted using a Discovery TGA (TA instruments) thermogravimetric analyzer. Samples of approximately 10 mg were weighed into aluminum pans and heated from ambient ([…]) to 250° C. at 10° C./minute heating rate under nitrogen purge (10 mL/min for both sample chamber and balance).\nas §1"}, "[7]": {"conditions": "control sample stored at ambient temperature"}, "[8]": {"conditions": "stressed samples: 70° C./75% RH and 70° C./5% RH for one week, 40° C./75% RH and 40° C./5% RH for 6 weeks"}, "[9]": {"conditions": "UV/Fluor, 2x ICH light exposure"}}, "data": [{"smiles": "CC(C)n1c(C(C)(C)O)nc2c(F)cc(-c3nc(N[C@@H]4CCOC[C@H]4O)ncc3Cl)cc21", "note": "[Form 2, 1,5-anhydro-3-({5-chloro-4-[4-fluoro-2-(2-hydroxypropan-2-yl)-1-(propan-2-yl)-1H-benzimidazol-6-yl]pyrimidin-2-yl}amino)-2,3-dideoxy-D-threo-pentitol monohydrate]", "values": [{"measurement": "% impurity RRT 0.89", "setting": "[1]; 70° C./5% RH (one week)", "result": 0.57, "unit": "%"}, {"measurement": "% impurity RRT 1.31", "setting": "[1]; 70° C./5% RH (one week)", "result": 0.99, "unit": "%"}, {"measurement": "% impurity RRT 0.89", "setting": "[1]; 70° C./75% RH (one week)", "result": 0.58, "unit": "%"}, {"measurement": "% impurity RRT 1.31", "setting": "[1]; 70° C./75% RH (one week)", "result": 1.00, "unit": "%"}, {"measurement": "% impurity RRT 0.89", "setting": "[1]; [7]", "result": 0.57, "unit": "%"}, {"measurement": "% impurity RRT 1.31", "setting": "[1]; [7]", "result": 1.00, "unit": "%"}, {"measurement": "change in appearance compared to the control sample", "setting": "[1]; [8]", "result": "No significant change in appearance"}, {"measurement": "growth of individual impurities", "setting": "[1]; [8]", "result": "≤ 0.2", "unit": "%"}, {"measurement": "total impurities", "setting": "[1]; [8]", "result": "≤ 2.0", "unit": "%"}, {"measurement": "solid form change by PXRD", "setting": "[2]; 40° C./5% RH for six weeks", "result": "disorder"}, {"measurement": "solid form change by PXRD", "setting": "[2]; 40° C./75% RH for six weeks", "result": "No form change was detected"}, {"measurement": "solid form change by PXRD", "setting": "[2]; 70° C./5% RH for one week", "result": "Slight disorder"}, {"measurement": "solid form change by PXRD", "setting": "[2]; 70° C./75% RH for one week", "result": "No form change was detected"}, {"measurement": "solid form change by PXRD", "setting": "[3]; 2×CH condition", "result": "no form change"}, {"measurement": "change in appearance compared to the dark control sample", "setting": "[3]; 2×CH photostability sample", "result": "No significant change in appearance"}, {"measurement": "growth of individual impurities", "setting": "[3]; 2×CH photostability samples", "result": "≤ 0.2", "unit": "%"}, {"measurement": "total impurities", "setting": "[3]; 2×CH photostability samples", "result": "≤ 2.0", "unit": "%"}, {"measurement": "% impurity RRT 0.74", "setting": "[3]; Dark control (wrapped in foil)", "result": "NMT = 0.05%"}, {"measurement": "% impurity RRT 0.87", "setting": "[3]; Dark control (wrapped in foil)", "result": 0.06, "unit": "%"}, {"measurement": "% impurity RRT 1.02", "setting": "[3]; Dark control (wrapped in foil)", "result": "NMT = 0.05%"}, {"measurement": "% impurity RRT 1.33", "setting": "[3]; Dark control (wrapped in foil)", "result": 0.08, "unit": "%"}, {"measurement": "% impurity RRT 0.74", "setting": "[3]; [9]", "result": 0.11, "unit": "%"}, {"measurement": "% impurity RRT 0.87", "setting": "[3]; [9]", "result": 0.06, "unit": "%"}, {"measurement": "% impurity RRT 1.02", "setting": "[3]; [9]", "result": 0.07, "unit": "%"}, {"measurement": "% impurity RRT 1.33", "setting": "[3]; [9]", "result": 0.07, "unit": "%"}, {"measurement": "form change at the completion of the moisture sorption run by PXRD", "setting": "[4]; 25° C., 60% RH", "result": "not detected"}, {"measurement": "Weight gain (%)", "setting": "[4]; 25 °C, RH 0%, listed as PF-07220060 monohydrate (Form 2), monohydrate", "result": 0.00, "unit": "%"}, {"measurement": "Weight gain (%)", "setting": "[4]; 25 °C, RH 10%, desorption, listed as PF-07220060 monohydrate (Form 2), monohydrate", "result": 0.54, "unit": "%"}, {"measurement": "Weight gain (%)", "setting": "[4]; 25 °C, RH 10%, sorption, listed as PF-07220060 monohydrate (Form 2), monohydrate", "result": 0.45, "unit": "%"}, {"measurement": "Weight gain (%)", "setting": "[4]; 25 °C, RH 20%, desorption, listed as PF-07220060 monohydrate (Form 2), monohydrate", "result": 0.55, "unit": "%"}, {"measurement": "Weight gain (%)", "setting": "[4]; 25 °C, RH 20%, sorption, listed as PF-07220060 monohydrate (Form 2), monohydrate", "result": 0.49, "unit": "%"}, {"measurement": "Weight gain (%)", "setting": "[4]; 25 °C, RH 30%, desorption, listed as PF-07220060 monohydrate (Form 2), monohydrate", "result": 0.56, "unit": "%"}, {"measurement": "Weight gain (%)", "setting": "[4]; 25 °C, RH 30%, sorption, listed as PF-07220060 monohydrate (Form 2), monohydrate", "result": 0.51, "unit": "%"}, {"measurement": "Weight gain (%)", "setting": "[4]; 25 °C, RH 40%, desorption, listed as PF-07220060 monohydrate (Form 2), monohydrate", "result": 0.57, "unit": "%"}, {"measurement": "Weight gain (%)", "setting": "[4]; 25 °C, RH 40%, sorption, listed as PF-07220060 monohydrate (Form 2), monohydrate", "result": 0.52, "unit": "%"}, {"measurement": "Weight gain (%)", "setting": "[4]; 25 °C, RH 50%, desorption, listed as PF-07220060 monohydrate (Form 2), monohydrate", "result": 0.58, "unit": "%"}, {"measurement": "Weight gain (%)", "setting": "[4]; 25 °C, RH 50%, sorption, listed as PF-07220060 monohydrate (Form 2), monohydrate", "result": 0.54, "unit": "%"}, {"measurement": "Weight gain (%)", "setting": "[4]; 25 °C, RH 60%, desorption, listed as PF-07220060 monohydrate (Form 2), monohydrate", "result": 0.60, "unit": "%"}, {"measurement": "Weight gain (%)", "setting": "[4]; 25 °C, RH 60%, sorption, listed as PF-07220060 monohydrate (Form 2), monohydrate", "result": 0.56, "unit": "%"}, {"measurement": "Weight gain (%)", "setting": "[4]; 25 °C, RH 70%, desorption, listed as PF-07220060 monohydrate (Form 2), monohydrate", "result": 0.60, "unit": "%"}, {"measurement": "Weight gain (%)", "setting": "[4]; 25 °C, RH 70%, sorption, listed as PF-07220060 monohydrate (Form 2), monohydrate", "result": 0.57, "unit": "%"}, {"measurement": "Weight gain (%)", "setting": "[4]; 25 °C, RH 80%, desorption, listed as PF-07220060 monohydrate (Form 2), monohydrate", "result": 0.61, "unit": "%"}, {"measurement": "Weight gain (%)", "setting": "[4]; 25 °C, RH 80%, sorption, listed as PF-07220060 monohydrate (Form 2), monohydrate", "result": 0.59, "unit": "%"}, {"measurement": "Weight gain (%)", "setting": "[4]; 25 °C, RH 90%, listed as PF-07220060 monohydrate (Form 2), monohydrate", "result": 0.62, "unit": "%"}, {"measurement": "Weight gain (%)", "setting": "[4]; 60 °C, RH 0% (initial drying step)", "result": 0.00, "unit": "%"}, {"measurement": "Weight Gain (%) at 25° C., 60% RH", "setting": "[4]; comparative summary of Forms 1, 2, 6 and 8, monohydrate", "result": "<1", "unit": "%"}, {"measurement": "hygroscopicity relative to Form 8 and Form 1", "setting": "[4]; moisture sorption at 25° C., 60% RH", "result": "reduced hygroscopicity"}, {"measurement": "thermal stability relative to Form 1 and Form 8", "setting": "[5]; TGA and DSC", "result": "improved thermal stability"}, {"measurement": "Thermal stability via DSC (° C.)", "setting": "[5]; listed as Form 2 (monohydrate), monohydrate", "result": 50, "unit": "°C"}, {"measurement": "Thermal stability via TGA (° C.)", "setting": "[6]", "result": 60, "unit": "°C"}]}]}
